The term GI50 denotes the concentration giving 50% growth inhibition.

This is an account of results in patent US10350210B2, “EGFR and ALK dual inhibitor” (PRECEDO PHARMACEUTICALS CO., LTD, priority 2015, dated 2019).

One experiment relates to PC-9. Kind of experiment: Growth of cancer cells (Cell Titer-Glo viability), PC-9. It counts as cell-based. Conditions: Homo sapiens; PC-9 (EGFR delE746_A750 mutant), 72 hrs. In a few lines: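 Cells are counted as viable by CellTiter-Glo chemiluminescence. Murine BaF3 lines depend on a stably transfected TEL-fused kinase after IL-3 withdrawal, and the NSCLC lines express mutant EGFR.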

The test system of a further experiment is A431. Kind of experiment: Growth of cancer cells (Cell Titer-Glo viability), A431. It counts as cell-based. Conditions: Homo sapiens, A-431; A431 (wild-type EGFR), 72 hrs; read-out: GI50.
For the next experiment, the system named is NCI-H2122. Briefly: Growth of cancer cells (Cell Titer-Glo viability), NCI-H2122. It counts as cell-based. The conditions noted are these: Homo sapiens; NCI-H2122 (wild-type EGFR), 72 hrs. A general note: In ATP-based viability assays light output follows the ATP content of the culture.
Another experiment deals with BaF3. Kind of experiment: Cell growth (Cell Titer-Glo viability), BaF3. Format: cell-based. The conditions noted are these: BaF3 mouse primary B cell, 72 hrs.
The next experiment has as its system ALK protein (H3122). Kind of experiment: Effect on signaling pathway in cells, H3122. Format: cell-based, human. The conditions noted are these: H3122 (expressing ALK gene), 4 h. The protocol:
In non-small cell lung cancer cell line H3122 (expressing ALK gene), the effect of Compound 1 on other protein kinases that are closely related to ALK such as Stat3, Ras, MEK1/2, ErK, mTOR, PI3K, JAK3, AKT in this cell was assessed by assaying a number of cellular biochemical and functional endpoints. […] The effect of Compound 1 on phosphorylation of Stat3 Y705, Ras, MEK1/2S217/221, Erk T202/204, mTOR, PI3K, JAK3Tyr980/981, AKT T308, AKT 5473 in this cell line was assayed (FIG. 1e).
In non-small cell lung cancer cell line H3122 (expressing ALK gene), the effect of Compound 10 on ALK and other protein kinases that are closely related to ALK such as Stat3, Ras, MEK1/2, ErK, mTOR, PI3K, JAK3, AKT in this cell was assessed by assaying a number of cellular biochemical and functional endpoints. The lung cancer cell H3122 (expressing ALK gene) was treated with different concentrations of 0 μM, 0.03 μM, 0.1 μM, 0.3 μM, 1 μM, 3 μM of Compound 10 (in DMSO), 1 μM of AZD9291 (in DMSO) (purchased from Shanghai Haoyuan Chemexpress Co., Ltd.), 1 μM of LDK378 (in DMSO) (purchased from Shanghai Haoyuan Chemexpress Co., Ltd.), and blank control (DMSO) for 4 h, and the samples were collected. The effect of Compound 10 on phosphorylation of ALK Y1604, Stat3 Y705, Ras, MEK1/25217/221, Erk T202/204, mTOR, PI3K, JAK3 Tyr980/981, AKT T308, AKT S473 in this cell line was assayed (FIG. 1f).

The test system of another experiment is H3122. Kind of experiment: Effect on cell apoptosis (Western Blot, PARP and Caspase 3 cleavage), H3122. Format: cell-based, human. Conditions: H3122 (ALK gene), 24 hours. From the text: In order to confirm whether the death of cells is through apoptosis or necrosis after administration of drugs, non-small cell lung cancer cell A549 (expressing wild-type EGFR gene), non-small cell lung cancer cell line H1975 (expressing EGFR L858R/T790M double mutant gene), non-small cell lung cancer cell line H3255 (expressing EGFR L858R mutant gene), non-small cell lung cancer cell line H3122 (expressing ALK gene) cell line, and non-small cell lung cancer cell line PC-9 (expressing EGFR delE746_A750 mutant gene) were tested for effect of Compound 1 on cleavage of poly ADP-ribose polymerase PARP which is a DNA repair enzyme and Caspase 3, which were closely related to cell apoptosis. […] Western Blot was used to detect the effect of various concentrations of drugs at various time points on cleavage of poly ADP-ribose polymerase PARP which is a DNA repair enzyme and Caspase 3.
(In western blotting, separated proteins are transferred to a membrane and probed.)

Regarding `C=CC(=O)Nc1cc(Nc2ncc(Cl)c(Nc3ccccc3S(=O)(=O)C(C)C)n2)c(OC)cc1N1CCN(CC)CC1` [Compound 1, N-(5-(5-chloro-4-(2-(isopropylsulfonyl)phenylamino)pyrimidin-2-ylamino)-2-(4-ethylpiperazin-1-yl)-4-methoxyphenyl)acrylamide], the concentration for 50% growth inhibition (GI50) in the experiment with PC-9 is 0.7 nM; in the experiment with A431 it was 62 nM; in the experiment on NCI-H2122 it was 9 nM; in the experiment with BaF3 it was 1400 nM. Also, the “concentration able to significantly inhibit the phosphorylation of ALK protein” value in the experiment on ALK protein (H3122) was 0.1 µM. For the same molecule, the “concentration that almost completely inhibited the phosphorylation of ALK protein” value in the experiment with ALK protein (H3122) stood at 0.3 µM. Moreover, the “effects on other protein kinases closely related to ALK protein (Stat3, Ras, MEK1/2, ErK, JAK3, AKT)” value with ALK protein (H3122) is recorded as “evident effects”. The “concentration at which evident cleavage of PARP and Caspase 3 could be observed” value in the experiment with H3122 was 0.03 µM.
For `C=CC(=O)Nc1cc(Nc2ncc(Cl)c(Nc3ccccc3S(=O)(=O)C(C)C)n2)c(OC)cc1N1CCCN(C)CC1` [Compound 10, N-(5-(5-chloro-4-(2-(isopropylsulfonyl)phenylamino)pyrimidin-2-ylamino)-4-methoxy-2-(4-methyl-1,4-homopiperazin-1-yl)phenyl)acrylamide], the GI50 came to 15 nM with PC-9, 170 nM in the experiment with A431, 190 nM with NCI-H2122 and 1200 nM in the experiment with BaF3. Also, the “concentration able to significantly inhibit the phosphorylation of ALK protein” value in the experiment with ALK protein (H3122) is 0.03 µM. In addition, the “concentration that almost completely inhibited the phosphorylation of ALK protein” value in the experiment on ALK protein (H3122) turned out to be 0.1 µM. In addition, the “effects on other protein kinases closely related to ALK protein (Stat3, Ras, MEK1/2, ErK, JAK3, AKT)” value in the experiment with ALK protein (H3122) is “evident effects”. For the same molecule, in the experiment on H3122, the “concentration at which evident cleavage of PARP and Caspase 3 could be observed” value is 1 µM.
